In patent US11597702B2, “Substituted pyrazoles FFA4/GPR120 receptor agonists” (AXXAM S.P.A., priority 2018, dated 2023):

These molecules were tested against T1, GPR120 (Homo sapiens, UniProt Q5NUL3) (assay: GPR120 agonism in CHO mitoPhotinaGPR120 cell based assay with fluorescent (Fluo-8 calcium, FLIPRTetra) readout, Agonist Mode, dose response). Conditions: CHO mitoPhotinaGPR120 cells, Fluo-8 No Wash Ca2+ dye, dose response in quadruplicate, 0.0033% fatty acid free BSA.
T1 construct: expressed in transfected cells; host or cells: CHO mitoPhotinaGPR120 cells
T1 sequence (Q5NUL3 1-361): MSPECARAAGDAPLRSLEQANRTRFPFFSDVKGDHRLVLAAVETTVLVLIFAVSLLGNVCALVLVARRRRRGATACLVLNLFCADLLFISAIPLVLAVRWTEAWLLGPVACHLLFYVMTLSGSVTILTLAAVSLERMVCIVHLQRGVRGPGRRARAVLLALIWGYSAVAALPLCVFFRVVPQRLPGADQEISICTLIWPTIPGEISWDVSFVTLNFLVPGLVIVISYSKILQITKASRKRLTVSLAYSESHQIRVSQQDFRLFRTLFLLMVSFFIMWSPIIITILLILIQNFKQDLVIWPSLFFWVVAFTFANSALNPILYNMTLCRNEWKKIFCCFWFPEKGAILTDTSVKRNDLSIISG
Description: Compounds of the invention were tested for GPR120 agonism in a CHO mitoPhotinaGPR120 cell based assay with fluorescent readout in Agonist Mode in dose response in quadruplicate with intra-plate modality.
Twenty (20) h after seeding, growth medium was manually removed and cells were starved in the presence of 25 μL/w of Standard Tyrode's Buffer. After 3 h, cells were loaded with 20 μL/w of 0.5× Fluo-8 No Wash (AAT Bioquest, Inc.) Ca2+ sensitive dye prepared in Standard Tyrode's Buffer. Cells were incubated for 1 h at room temperature in the dark. Ten (10) μL/w 3× of controls and compounds were diluted in Standard Tyrode's Buffer+0.01% fatty acid free BSA (final concentration=0.0033%) and injected at the FLIPRTetra®, recording the kinetic calcium traces for 3 minutes. Standard Tyrode's buffer composition: 5 mM KCl, 130 mM NaCl, 2 mM CaCl2), 5 mM NaHCO3, 1 mM MgCl2, 20 mM HEPES, pH7.4.

EC50	SMILES
4.62 µM	Cc1nn(-c2ccc(OC(F)(F)F)cc2)c(COc2ccc(CCO)cc2)c1C#N [Example 115, 5-[[4-(2-hydroxyethyl)phenoxy]methyl]-3-methyl-1-[4-(trifluoromethoxy)phenyl]pyrazole-4-carbonitrile]
1.01 µM	Cc1cc(CO)cc(C)c1OCc1c(C#N)c(C)nn1-c1ccccc1 [Example 17, 5-[[4-(hydroxymethyl)-2,6-dimethyl-phenoxy]methyl]-3-methyl-1-phenyl-pyrazole-4-carbonitrile]
0.52 µM	COc1cc(CCCO)ccc1OCc1c(C#N)c(C)nn1-c1ccccc1 [Example 53, 5-[[4-(3-hydroxypropyl)-2-methoxy-phenoxy]methyl]-3-methyl-1-phenyl-pyrazole-4-carbonitrile]
9.03 µM	Cc1nn(-c2cccc(C(F)(F)F)c2)c(COc2ccc(CCO)cc2)c1C#N [Example 77, 5-[[4-(2-hydroxyethyl)phenoxy]methyl]-3-methyl-1-[3-(trifluoromethyl)phenyl]pyrazole-4-carbonitrile]
0.83 µM	Cc1nn(-c2ccccc2)c(C(F)(F)Oc2ccc(CCCO)cc2)c1C#N [Example 95, 5-[difluoro-[4-(3-hydroxypropyl)phenoxy]methyl]-3-methyl-1-phenyl-pyrazole-4-carbonitrile]
0.15 µM	Cc1nn(-c2ccccc2)c(COc2ccc(CCCO)cc2)c1C#N [Example 35, 5-[[4-(3-hydroxypropyl)phenoxy]methyl]-3-methyl-1-phenyl-pyrazole-4-carbonitrile]
0.94 µM	Cc1cccc(C)c1OCc1c(C#N)c(C)nn1-c1ccccc1 [Example 25, 5-[(2,6-dimethylphenoxy)methyl]-3-methyl-1-phenyl-pyrazole-4-carbonitrile]
0.28 µM	COc1ccc(-n2nc(C)c(C#N)c2COc2ccc(CCCO)cc2)nc1 [Example 157, 5-[[4-(3-hydroxypropyl)phenoxy]methyl]-1-(5-methoxy-2-pyridyl)-3-methyl-pyrazole-4-carbonitrile]
0.24 µM	CCc1ccc(-n2nc(C)c(C#N)c2COc2ccc(CCCO)cc2)cc1 [Example 151, 1-(4-ethylphenyl)-5-[[4-(3-hydroxypropyl)phenoxy]methyl]-3-methyl-pyrazole-4-carbonitrile]
0.58 µM	Cc1ccccc1OCc1c(C#N)c(C)nn1-c1ccccc1 [Example 26, 3-methyl-5-[(2-methylphenoxy)methyl]-1-phenyl-pyrazole-4-carbonitrile]
1.02 µM	Cc1nn(-c2ccccc2)c(COc2ccc3n[nH]cc3c2)c1C#N [Example 61, 5-(2~{H}-indazol-5-yloxymethyl)-3-methyl-1-phenyl-pyrazole-4-carbonitrile]
5.55 µM	Cc1nn(-c2ccc(F)cc2F)c(COc2ccc(CCO)cc2)c1C#N [Example 114, 1-(2,4-difluorophenyl)-5-[[4-(2-hydroxyethyl)phenoxy]methyl]-3-methyl-pyrazole-4-carbonitrile]
1.29 µM	Cc1nn(-c2ccccc2)c(COc2ccc(C#N)cc2)c1C#N [Example 1, 5-[(4-cyanophenoxy)methyl]-3-methyl-1-phenyl-pyrazole-4-carbonitrile]
2.24 µM	Cc1nn(C2CCCCC2)c(COc2ccc(CCO)cc2)c1C#N [Example 118, 1-cyclohexyl-5-[[4-(2-hydroxyethyl)phenoxy]methyl]-3-methyl-pyrazole-4-carbonitrile]
0.79 µM	Cc1nn(-c2ccccc2)c(COc2cccc(F)c2)c1C#N [Example 40, 5-[(3-fluorophenoxy)methyl]-3-methyl-1-phenyl-pyrazole-4-carbonitrile]
5.92 µM	Cc1cc(COc2ccc(CCO)cc2)n(-c2ccccc2)n1 [Example 126, 2-[4-[(5-methyl-2-phenyl-pyrazol-3-yl)methoxy]phenyl]ethanol]
0.33 µM	Cc1nn(-c2ccccc2)c(C(C)Oc2c(F)cc(CCCO)cc2F)c1C#N (stereo not shown) [Example 93, 5-[1-[2,6-difluoro-4-(3-hydroxypropyl)phenoxy]ethyl]-3-methyl-1-phenyl-pyrazole-4-carbonitrile]
1.69 µM	Cc1nn(-c2ccccc2)c(COc2c(F)cc(CC(C)CO)cc2F)c1C#N (single isomer, unassigned; (+)) [Example 43B, (+)-5-[[2,6-difluoro-4-(3-hydroxy-2-methyl-propyl)phenoxy]methyl]-3-methyl-1-phenyl-pyrazole-4-carbonitrile]
0.34 µM	Cc1nn(-c2ccccc2)c(COc2c(F)cc(CC(C)CO)cc2F)c1C#N (single isomer, unassigned; (+)) [Example 43A, (+)-5-[[2,6-difluoro-4-(3-hydroxy-2-methyl-propyl)phenoxy]methyl]-3-methyl-1-phenyl-pyrazole-4-carbonitrile]

EC50	SMILES
2.3 µM	Cc1ccnc(C)c1OCc1c(C#N)c(C)nn1-c1ccccc1 [Example 70, 5-[(2,4-dimethyl-3-pyridyl)oxymethyl]-3-methyl-1-phenyl-pyrazole-4-carbonitrile]
9.22 µM	Cc1nn(-c2cccnc2)c(COc2ccc(CCO)cc2)c1C#N [Example 103, 5-[[4-(2-hydroxyethyl)phenoxy]methyl]-3-methyl-1-(3-pyridyl)pyrazole-4-carbonitrile]
1.98 µM	Cc1cccc(-n2nc(C)c(C#N)c2COc2ccc(CCO)cc2)c1 [Example 73, 5-[[4-(2-hydroxyethyl)phenoxy]methyl]-3-methyl-1-(m-tolyl)pyrazole-4-carbonitrile]
2.63 µM	Cc1nn(-c2ccccc2)c(CSc2ccc(CCO)cc2)c1C#N [Example 59, 5-[[4-(2-hydroxyethyl)phenyl]sulfanylmethyl]-3-methyl-1-phenyl-pyrazole-4-carbonitrile]
0.52 µM	Cc1nn(-c2ccccc2)c(C(F)(F)Oc2c(F)cc(CCCO)cc2F)c1C#N [Example 96, 5-[[2,6-difluoro-4-(3-hydroxypropyl)phenoxy]-difluoro-methyl]-3-methyl-1-phenyl-pyrazole-4-carbonitrile]
1.52 µM	Cc1nn(-c2ccccc2)c(COc2ccccc2)c1C#N [Example 8, 3-methyl-5-(phenoxymethyl)-1-phenyl-pyrazole-4-carbonitrile]
8.15 µM	Cc1nn(-c2ccc(C#N)cc2)c(COc2ccc(CCO)cc2)c1C#N [Example 107, 1-(4-cyanophenyl)-5-[[4-(2-hydroxyethyl)phenoxy]methyl]-3-methyl-pyrazole-4-carbonitrile]
0.3 µM	CCc1ccc(-n2nc(C)c(C#N)c2COc2c(F)cc(CCCO)cc2F)cc1 [Example 160, 5-[[2,6-difluoro-4-(3-hydroxypropyl)phenoxy]methyl]-1-(4-ethylphenyl)-3-methyl-pyrazole-4-carbonitrile]
0.71 µM	Cc1cccc(OCc2c(C#N)c(C)nn2-c2ccccc2)c1C [Example 30, 5-[(2,3-dimethylphenoxy)methyl]-3-methyl-1-phenyl-pyrazole-4-carbonitrile]
1.64 µM	COc1cccc(-n2nc(C)c(C#N)c2COc2ccc(CCO)cc2)c1 [Example 79, 5-[[4-(2-hydroxyethyl)phenoxy]methyl]-1-(3-methoxyphenyl)-3-methyl-pyrazole-4-carbonitrile]
0.53 µM	Cc1nn(-c2ccccn2)c(COc2ccc(CCO)cc2)c1C#N [Example 102, 5-[[4-(2-hydroxyethyl)phenoxy]methyl]-3-methyl-1-(2-pyridyl)pyrazole-4-carbonitrile]
3.09 µM	Cc1nn(-c2ccccc2)c(COc2ccc(CO)c(F)c2F)c1C#N [Example 14, 5-[[2,3-difluoro-4-(hydroxymethyl)phenoxy]methyl]-3-methyl-1-phenyl-pyrazole-4-carbonitrile]
0.31 µM	Cc1nn(Cc2ccccc2)c(COc2c(F)cc(CCCO)cc2F)c1C#N [Example 90, 1-benzyl-5-[[2,6-difluoro-4-(3-hydroxypropyl)phenoxy]methyl]-3-methyl-pyrazole-4-carbonitrile]
1.24 µM	Cc1nn(-c2ccccc2)c(COc2ccc(CO)cc2Cl)c1C#N [Example 2, 5-[[2-chloro-4-(hydroxymethyl)phenoxy]methyl]-3-methyl-1-phenyl-pyrazole-4-carbonitrile]
19.1 µM	Cc1nn(-c2ccccc2)c(COc2cccnc2C#N)c1C#N [Example 64, 3-[(4-cyano-5-methyl-2-phenyl-pyrazol-3-yl)methoxy]pyridine-2-carbonitrile]
4.55 µM	Cc1nn(-c2ccc(F)cc2)c(COc2cccc(F)c2)c1C#N [Example 85, 5-[(3-fluorophenoxy)methyl]-1-(4-fluorophenyl)-3-methyl-pyrazole-4-carbonitrile]
2.49 µM	Cc1nn(-c2cccnn2)c(COc2ccc(CCO)cc2)c1C#N [Example 106, 5-[[4-(2-hydroxyethyl)phenoxy]methyl]-3-methyl-1-pyridazin-3-yl-pyrazole-4-carbonitrile]
1.31 µM	COc1ccc(OCc2c(C#N)c(C)nn2-c2ccccc2)cc1 [Example 3, 5-[(4-methoxyphenoxy)methyl]-3-methyl-1-phenyl-pyrazole-4-carbonitrile]
